Source: US12612427B2, “Aryl glucoside derivative, preparation method therefor and application thereof” (Shanghai Zheye Biotechnology Co. Ltd., priority 2020, dated 2026)
Values joined by “and” are separate entries in the source; they are usually repeats but may differ in a detail not shown here. Equal entries are not always repeated.

Experiments:
[1] = Lipid solubility and water solubility; format: physicochemical; settings: compared with the compound of Example 5
human SGLT1 = target: T1, human SGLT1 (Homo sapiens, UniProt P13866); test: hSGLT1 inhibitor activity experiment 2: 2-NBDG uptake by HEK293 cells stably expressing human SGLT1; format: cell-based; settings: for IC50: 2-NBDG uptake, HEK293 stably expressing human SGLT1, read-out: SGLT1 Inhibitory Activity
T1 construct: expressed in transfected cells
T1 sequence (P13866 1-664): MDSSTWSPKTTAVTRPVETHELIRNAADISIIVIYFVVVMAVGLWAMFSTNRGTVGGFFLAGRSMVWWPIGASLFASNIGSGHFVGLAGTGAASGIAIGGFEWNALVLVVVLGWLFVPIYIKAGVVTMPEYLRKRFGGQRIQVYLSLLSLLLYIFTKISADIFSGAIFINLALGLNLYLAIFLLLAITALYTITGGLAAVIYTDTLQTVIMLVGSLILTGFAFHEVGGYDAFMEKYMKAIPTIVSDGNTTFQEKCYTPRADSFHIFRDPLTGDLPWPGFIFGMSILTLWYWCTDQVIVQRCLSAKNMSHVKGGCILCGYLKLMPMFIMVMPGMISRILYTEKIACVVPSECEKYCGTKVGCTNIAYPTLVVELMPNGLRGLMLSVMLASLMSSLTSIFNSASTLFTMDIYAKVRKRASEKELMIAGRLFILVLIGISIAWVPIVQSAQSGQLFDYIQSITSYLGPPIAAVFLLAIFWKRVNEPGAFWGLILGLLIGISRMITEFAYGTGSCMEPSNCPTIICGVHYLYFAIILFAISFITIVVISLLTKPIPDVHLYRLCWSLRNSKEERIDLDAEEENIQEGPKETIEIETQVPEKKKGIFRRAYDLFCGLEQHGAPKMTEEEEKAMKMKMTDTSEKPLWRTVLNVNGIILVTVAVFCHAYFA
Experimental: Inhibitory activity testing was performed with reference to a similar method described in document [Acta Pharmaceutica Sinica 2017, 52 (6): 897-903; Nature Protocols (2007), 2(3), 753-762; Journal of Biochemical and Biophysical Methods (2005), 64(3), 207-215; Diabetes Technology & Therapeutics (2011), 13(7), 743-775].
In this experiment, the in vitro activity assay was evaluated using the uptake of 2-NBDG (2-Deoxy-2-[(7-nitro-2,1,3-benzoxadiazol-4-yl)amino]-D-glucose, CAS NO: 186689-07-6) by human embryonic kidney epithelial cells (HEK293, stably expressing human SGLT1), and the SGLT1 inhibitory activity of the target compound was determined by measuring its half-maximal inhibitory concentration (IC50).
HEK293 cells that can stably express human SGLT1 gene were inoculated into a 96-well clear-bottom black plate containing DMEM medium. The cells were incubated at 37° C., 5% CO2 in a cell incubator. The medium in the 96-well plate was aspirated, and the plate was treated with low-glucose serum-free DMEM medium, and washed once with non-specific uptake buffer and once with Na^+-dependent uptake buffer. Uptake buffer containing test compound was added to each well of cells, followed by uptake buffer containing 2-NBDG for glucose uptake, and the cell plate was incubated at 37° C., 5% CO2. The compounds were gradiently diluted. The uptake reaction was stopped by removing the culture medium, and after washing the cells with ice-cold uptake buffer, the washing solution was removed. The cells were lysed by adding NaOH, and the content of 2-NBDG in the cells was detected by a fluorescence microplate reader. The protein concentration of the lysate was measured by BCA method, the uptake of 2-NBDG was quantified by fluorescence intensity/protein content, and the obtained data were analyzed using GraphPad Prism to determine the median inhibitory concentration (IC50) of the compound to be tested.

SD rats = test: Oral glucose tolerance test (OGTT) after continuous administration in rats for 14 days; format: in vivo, rat; settings: for blood sugar level of rats (OGTT): 0.009 mg/kg oral gavage, 14 days, OGTT on day 15; for loose stools in the experimental animals: rats, within 48 hours before and after the experiment
Experimental: • Experimental animals: SPF male SD rats; • Compound preparation: an appropriate amount of the compounds of Example 1, Example 2, Example 9, Example 10, and Example 17 were weighed, and uniformly suspended with an appropriate amount of 0.5% CMC-Na solution; • Preparation of glucose solution: an appropriate amount of glucose powder was weighed and dissolved with an appropriate amount of pure water; • Dosage and method of administration: 0.009 mg/kg, oral gavage.
Experimental process: the animals were fed a normal diet with consecutive administration for 14 days, and the glucose tolerance test was performed on day 15, blood glucose was detected before administration (−30 min), before giving glucose (0 min), and 10, 30, 60, and 120 min after giving glucose solution, and the defecation of animals was observed.

[2] = Pharmacokinetic study in rats; format: in vivo, rat; settings: 10 mg/kg, oral gavage, 0-24 hours
Experimental: 5. Pharmacokinetic Study in Rats • Experimental animals: SPF male SD rats; • Dosage and method of administration: 10 mg/kg, oral gavage. • Research compound: Dapagliflozin, the compound of Example 9, the compound of Example 10, the compound of Example 17, and the comparative compound 6;
Test method: Before administration (0), and 1, 4, 8, and 24 hours after administration, 0.2 ml of blood was collected from orbital venous plexus, anticoagulated with heparin, plasma was collected, and the blood drug concentration was determined.

[3] = tested on: type 2 diabetes mouse model; test: In vivo hypoglycemic efficacy experiment combined with sitagliptin; settings: 0.01, 0.05, 0.1 mg/kg combined with 20 mg/kg of sitagliptin, STZ and high-fat high-sugar diet mice
Experimental: Model establishment: SPF grade Balb/C male mice were used in this experiment, and the establishment of the type 2 diabetes mouse model was induced by intraperitoneal injection of streptozotocin (STZ) supplemented by high-fat and high-sugar diet. • Group: 10 per group
Administration: normal group, model group, low-dose combined administration group (0.01 mg/kg of the compound of Example 10+20 mg/kg of sitagliptin), medium-dose combined administration group (0.05 mg/kg of the compound of Example 10+20 mg/kg of sitagliptin), high-dose combined administration group (0.1 mg/kg of the compound of Example 10+20 mg/kg of sitagliptin), sitagliptin group (20 mg/kg). The normal group and the model group were given the solvent by gavage.

SD mice = test: Oral glucose tolerance test (OGTT) after consecutive administration in mice; format: in vivo, mouse; settings: for Statistics of loose stools in animals / loose stools (in words): mice
Experimental: • Experimental animals: SPF male SD mice; • Compound preparation: an appropriate amount of the compound of Example 10 was weighed, and uniformly suspended with an appropriate amount of 0.5% CMC-Na solution; • Preparation of glucose solution: an appropriate amount of glucose powder was weighed and dissolved with an appropriate amount of pure water; • Administration and dosage: oral gavage; blank vehicle group, high-dose group (1.5 mg/kg), low-dose group (0.1 mg/kg). Experimental Process: • (1) The mice were fed a high-sugar diet for 6 days, and then grouped (10 mice in each group) to enter the administration stage; • (2) Example compound 10 was administered at 5:00 pm every day from day 1 to day 5, once a day, and then the animals were fed a high-sugar free diet, and the defecation of the animals was observed. • (3) On day 6, oral glucose tolerance test was performed, and glucose solution (2 g/kg) was orally administered. Blood glucose was detected before (0 min) and 10, 30, and 60 min after giving glucose solution, respectively. Experimental Results: • (1) From day 1 to day 5, the observation of animal defecation after continuous administration is summarized as follows: […]

[4] = tested on: microorganisms in rat feces; test: Intestinal microbial metabolic stability in rat feces suspension; format: in vitro ADME; settings: for Percentage of remaining compound: rat feces suspension, 37° C.
Experimental: Methods: The collected rat feces were processed, and the feces suspension was obtained for the determination of metabolic stability. The mixed reaction system consisting of the rat feces suspension and the compound of […] was incubated at 37° C. for 3 h, 6 h, 12 h and 24 h. The compound of Example 10 in the incubation system was analyzed to determine the total amount of remaining compound. Wherein, “+” represents the remaining percentage being: <50%; “++” represents the remaining percentage being: 50% to 70%; “+++” represents the remaining percentage being: 70% to 90%; “++++” means the remaining percentage being: >90%.

SMILES	activity of inhibiting SGLT1 (in words) (human SGLT1)	IC50 (human SGLT1)	drug concentration in plasma [2]	blood sugar level of rats (OGTT) (SD rats)	loose stools in the experimental animals (SD rats)	also measured
CS[C@H]1O[C@@H](c2ccc(C)c(Cc3ccc(CCCC(=O)NC(C)(C)C(=O)NCCN(C)CC(=O)N(C)Cc4cn(C5CC5)nn4)cc3)c2)[C@H](O)[C@@H](O)[C@@H]1O	–	–	–	–	–	lipid solubility [1]: better; water solubility [1]: better
CS[C@H]1O[C@@H](c2ccc(C)c(Cc3ccc(CCCC(=O)NC(C)(C)C(=O)NCCN(C)CC(=O)N(C)C)cc3)c2)[C@H](O)[C@@H](O)[C@@H]1O [Example 2]	significant activity of inhibiting SGLT1	1.12 nM	–	significantly reduce the blood sugar level	no loose stools were observed	–
CS[C@H]1O[C@@H](c2ccc(C)c(Cc3ccc(CCCC(=O)NC(C)(C)C(=O)NCCN(C)CC(=O)N4CCN(C)CC4)cc3)c2)[C@H](O)[C@@H](O)[C@@H]1O [Example 3]	significant activity of inhibiting SGLT1	0.93 nM	–	–	–	–
C#CCN(CCNC(=O)C(C)(C)NC(=O)CCCc1ccc(Cc2cc([C@@H]3O[C@H](SC)[C@@H](O)[C@H](O)[C@H]3O)ccc2C)cc1)CC(=O)N1CCCC1 [Example 9]	significant activity of inhibiting SGLT1	0.53 nM	did not reach the detection limit	significantly reduce the blood sugar level	no loose stools were observed	–
C#CCN(C)C(=O)CN(C)CCNC(=O)C(C)(C)NC(=O)CCCc1ccc(Cc2cc([C@@H]3O[C@H](SC)[C@@H](O)[C@H](O)[C@H]3O)ccc2C)cc1 [Example 10]	significant activity of inhibiting SGLT1	0.37 nM	did not reach the detection limit	significantly reduce the blood sugar level	no loose stools were observed	blood glucose level of diabetic model animals [3]: significantly reduce the blood glucose level; blood glucose level of mice (OGTT) (SD mice; day 6, high (1.5 mg/kg) and low (0.1 mg/kg) dose groups, glucose 2 g/kg): significantly reduce the blood glucose level; Statistics of loose stools in animals (SD mice; high-dose group (1.5 mg/kg), Day 1): only one animal had loose stools and 1/10; Statistics of loose stools in animals (SD mice; high-dose group (1.5 mg/kg), Day 2): 0/10; Statistics of loose stools in animals (SD mice; high-dose group (1.5 mg/kg), Day 3): 0/10; Statistics of loose stools in animals (SD mice; high-dose group (1.5 mg/kg), Day 4): 0/10; Statistics of loose stools in animals (SD mice; high-dose group (1.5 mg/kg), Day 5): 0/10; loose stools (in words) (SD mice; high-dose group (1.5 mg/kg), day 2 to day 5): did not have loose stools; Statistics of loose stools in animals (SD mice; low-dose group (0.1 mg/kg), Day 1): 0/10; Statistics of loose stools in animals (SD mice; low-dose group (0.1 mg/kg), Day 2): 0/10; Statistics of loose stools in animals (SD mice; low-dose group (0.1 mg/kg), Day 3): 0/10; Statistics of loose stools in animals (SD mice; low-dose group (0.1 mg/kg), Day 4): 0/10; Statistics of loose stools in animals (SD mice; low-dose group (0.1 mg/kg), Day 5): 0/10; loose stools (in words) (SD mice; low-dose group (0.1 mg/kg), continuous administration for 5 days): did not have loose stools; remaining compound ([4]; incubated with microorganisms in rat feces for about 24 hours): > 70%; Percentage of remaining compound ([4]; incubation 3 h): ++++ (“++++” means the remaining percentage being: >90%); Percentage of remaining compound ([4]; incubation 6 h): +++ (“+++” represents the remaining percentage being: 70% to 90%); Percentage of remaining compound ([4]; incubation 12 h): +++ (“+++” represents the remaining percentage being: 70% to 90%); Percentage of remaining compound ([4]; incubation 24 h): +++ (“+++” represents the remaining percentage being: 70% to 90%)

Now from value to compound, other results behind:

activity of inhibiting SGLT1 (in words) (human SGLT1)	IC50 (human SGLT1)	drug concentration in plasma [2]	SMILES	blood sugar level of rats (OGTT) (SD rats)	loose stools in the experimental animals (SD rats)	also measured
significant activity of inhibiting SGLT1	0.78 nM	–	CS[C@H]1O[C@@H](c2ccc(C)c(Cc3ccc(CCCC(=O)NC(C)(C)C(=O)NCCN(C)CC(=O)N4CCCC4)cc3)c2)[C@H](O)[C@@H](O)[C@@H]1O [Example 1]	significantly reduce the blood sugar level	no loose stools were observed	–
significant activity of inhibiting SGLT1	0.87 nM	–	CS[C@H]1O[C@@H](c2ccc(C)c(Cc3ccc(CCCC(=O)NC(C)(C)C(=O)N4CCN(CC(=O)N5CCCC5)CC4)cc3)c2)[C@H](O)[C@@H](O)[C@@H]1O [Example 4]	–	–	–
significant activity of inhibiting SGLT1	0.49 nM	did not reach the detection limit	C#CCN(C)C(=O)CN1CCN(C(=O)C(C)(C)NC(=O)CCCc2ccc(Cc3cc([C@@H]4O[C@H](SC)[C@@H](O)[C@H](O)[C@H]4O)ccc3C)cc2)CC1 [Example 17]	significantly reduce the blood sugar level	no loose stools were observed	–
